Here are results for three compounds from ChEMBL document CHEMBL1144510, “Synthesis of beta-ketophosphonate analogs of glutamyl and glutaminyl adenylate, and selective inhibition of the corresponding bacterial aminoacyl-tRNA synthetases” (Bioorg Med Chem, 2007).

Broadly, the Ki is the dissociation constant of the complex between target and ligand, obtained from inhibition or displacement. Low readings indicate higher affinity, high ones lower affinity.

Test [1] is described as follows: Inhibition of Escherichia coli GluRS.
A short description of test [2]: Inhibition of cytoplasmic calf liver GluRS. Details: species or system Bos taurus.
Test [3] in a line: Ratio of Ki for calf liver GluRS to Ki for Escherichia coli GluRS.
Test [4] is described as follows: Inhibition of Escherichia coli GlnRS.

As for `Nc1ncnc2c1ncn2[C@@H]1OC(COS(=O)(=O)NC(=O)[C@@H](N)CCC(=O)O)[C@@H](O)[C@H]1O` (some centres undefined), the Ki is 0.0028 µM in test [1] and 0.07 µM in test [2]. Also, the Ratio Ki in test [3] was determined as 25.
With `Nc1ncnc2c1ncn2[C@@H]1O[C@H](COP(=O)(O)CC(=O)[C@@H](N)CCC(=O)O)[C@@H](O)[C@H]1O`, the figures for the Ki in test [4], in test [1] and in test [2] were 2800 µM, 18 µM and 2600 µM, respectively. The Ratio Ki in test [3] turned out to be 145.
Turning to `NC(=O)CC[C@H](N)C(=O)CP(=O)(O)OC[C@H]1O[C@@H](n2cnc3c(N)ncnc32)[C@H](O)[C@@H]1O`, the Ki in test [4] came to 650 µM; in test [1], 2900 µM.
